We go through 10 compounds from patent US9115143B2, “Substituted indole derivatives as gamma secretase modulators” (Janssen Pharmaceuticals, Inc., priority 2011, dated 2015).

The test system of assay [1] is Aβ38. The assay can be described thus: In vivo efficacy B-2b: brain soluble Aβ38, MSD electrochemiluminescence multiplex. The conditions noted are these: mouse brain soluble fraction, dose 30 mg/kg oral dosing, 4 h after dose; untreated control set at 100; read-out: Aβ38 (% vs Ctrl)_Mean. From the text: To determine whether acute administration of an Aβ38 increasing agents would increase Aβ38 levels in vivo, non-transgenic rodents, e.g. mice or rats were used. Animals treated with the Aβ38 increasing agents were examined and compared to those untreated or treated with vehicle and brain levels of soluble Aβ42, Aβ40, Aβ38, and Aβ37 were quantitated by MSD electrochemiluminescence detection technology. Treatment periods varied from hours (h) to days and were adjusted based on the results of the Aβ38 increase once a time course of onset of effect could be established.
A typical protocol for measuring Aβ38 increase in vivo is shown but it is only one of many variations that could be used to optimize the levels of detectable Aβ. For example, Aβ38 increasing agents were formulated in 20% of Captisol® (a sulfobutyl ether of β-cyclodextrin) in water or 20% hydroxypropyl β cyclodextrin. The Aβ38 increasing agents were administered as a single oral dose or by any acceptable route of administration to overnight fasted animals. After 4 h, the animals were sacrificed and Aβ38 levels were analysed.
(§1) Blood was collected by decapitation and exsanguinations in EDTA-treated collection tubes. Blood was centrifuged at 1900 g for 10 minutes (min) at 4° C. and the plasma recovered and flash frozen for later analysis. The brain was removed from the cranium and hindbrain. The cerebellum was removed and the left and right hemisphere were separated. The left hemisphere was stored at −18° C. for quantitative analysis of test compound levels. The right hemisphere was rinsed with phosphate-buffered saline (PBS) buffer and immediately frozen on dry ice and stored at −80° C. until homogenization for biochemical assays.
(§2) Mouse brains from non-transgenic animals were resuspended in 8 volumes of 0.4% DEA (diethylamine)/50 mM NaCl containing protease inhibitors (Roche-11873580001 or 04693159001) per gram of tissue, e.g. for 0.158 g brain, add 1.264 ml of 0.4% DEA. All samples were homogenized in the FastPrep-24 system (MP Biomedicals) using lysing matrix D (MPBio #6913-100) at 6 m/s for 20 seconds. Homogenates were centrifuged at 20800×g for 5 min and supernatants collected. Supernatants were centrifuged at 221.300×g for 50 min. The resulting high speed supernatants were then transferred to fresh eppendorf tubes. Nine parts of supernatant were neutralized with 1 part 0.5 M Tris-HCl pH 6.8 and used to quantify Aβ.
(§3) To quantify the amount of Aβ42, Aβ40, Aβ38, and Aβ37 in the soluble fraction of the brain homogenates, simultaneous specific detection of Aβ42, Aβ40, Aβ38, and Aβ37 was performed using MSD's electro-chemiluminescence multiplex detection technology. In this assay purified monoclonal antibodies specific for Abeta37 (JRD/Aβ37/3), Abeta38 (J&JPRD/Aβ38/5), Abeta40 (JRF/cAβ40/28), and Abeta42 (JRF/cAβ42/26) were coated on MSD 4-plex plates. Briefly, the standards (a dilution of synthetic Aβ42, Aβ40, Aβ38, and Aβ37) were prepared in 1.5 ml Eppendorf tube in Ultraculture, with final concentrations ranging from 10000 to 0.3 pg/m. The samples and standards were co-incubated with Sulfo-tag labelled JRF/rAβ/2 antibody to the N-terminus of Aβ as detector antibody. 50 μl of conjugate/sample or conjugate/standards mixtures were then added to the antibody-coated plate. The plate was allowed to incubate overnight at 4° C. in order to allow formation of the antibody-amyloid complex. Following this incubation and subsequent wash steps the assay was finished by adding read buffer according to the manufacturer's instructions (Meso Scale Discovery, Gaitherburg, Md.).
(§4) The SULFO-TAG emits light upon electrochemical stimulation initiated at the electrode. MSD Sector instrument SI6000 was used for signal read-out.
In this model a Aβ38 increase compared to untreated animals would be advantageous, in particular a Aβ38 increase with at least 10%, more in particular a Aβ38 increase with at least 20%. […]

The test system of assay [2] is Aβ42. Briefly: Screening for γ-secretase-modulating activity: Aβ42 in supernatant of SKNBE2 cells carrying hAPP 695 wild type (Alphalisa). The settings on record: SKNBE2 human neuroblastoma cells carrying hAPP 695 wild type; overnight incubation; Alphalisa on supernatant. Type of assay: cell-based, human. In a few lines: (§5)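 Secreted Aβ42 (C-terminal/N-terminal antibody pair) and Aβtotal (N-terminal/mid-region pair) were quantified by AlphaLISA after overnight compound exposure of wild-type hAPP 695 SKNBE2 cells at 37 °C. Values expressed relative to compound-free maximum, with IC50 from nonlinear 4-parameter regression.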
(Bead proximity is the source of the signal in Alpha formats.)

The subject of assay [3] is Aβ40. The assay can be described thus: In vivo efficacy B-1b/B-2b: brain soluble Aβ40, MSD electrochemiluminescence multiplex. The settings on record: mouse brain soluble fraction, dose 30 mg/kg oral dosing, 4 h after dose; untreated control set at 100; read-out: Aβ40 (% vs Ctrl)_Mean.
Excerpt: (§6) To determine whether acute administration of an Aβ42 lowering agent would reduce Aβ42 levels in vivo, non-transgenic rodents, e.g. mice or rats were used. Animals treated with the Aβ42 lowering agent were examined and compared to those untreated or treated with vehicle and brain levels of soluble Aβ42, Aβ40, Aβ38, and Aβ37 were quantitated by Meso Scale Discovery's (MSD) electrochemiluminescence detection technology. Treatment periods varied from hours (h) to days and were adjusted based on the results of the Aβ42 lowering once a time course of onset of effect could be established.
(§7) A typical protocol for measuring Aβ42 lowering in vivo is shown but it is only one of many variations that could be used to optimize the levels of detectable Aβ. For example, Aβ42 lowering compounds were formulated in 20% of Captisol® (a sulfobutyl ether of β-cyclodextrin) in water or 20% hydroxypropyl β cyclodextrin. The Aβ42 lowering agents were administered as a single oral dose or by any acceptable route of administration to overnight fasted animals. After 4 h, the animals were sacrificed and Aβ42 levels were analysed.
as §1, §2, §3, §4
The results are shown in Table 5 (dose 30 mg/kg oral dosing) (value for untreated animals as control (Ctrl) was set at 100): […]

In assay [4] the test system is Aβ42. Briefly: In vivo efficacy B-1b: brain soluble Aβ42, MSD electrochemiluminescence multiplex. The conditions noted are these: mouse brain soluble fraction, dose 30 mg/kg oral dosing, 4 h after dose; untreated control set at 100; read-out: Aβ42 (% vs Ctrl)_Mean.
Excerpt: as §6, §7, §1, §2, §3, §4
In this model a Aβ42 lowering compared to untreated animals would be advantageous, in particular a Aβ42 lowering with at least 10%, more in particular a Aβ42 lowering with at least 20%. […]

Assay [5] concerns Aβtotal. Briefly: Screening for γ-secretase-modulating activity: Aβtotal in supernatant of SKNBE2 cells carrying hAPP 695 wild type (Alphalisa). The settings on record: overnight incubation, Alphalisa on supernatant. Type of assay: cell-based, human. An outline of the steps: as §5
[6] abbreviates: Homo sapiens, SKNBE2, SKNBE2 human neuroblastoma cells carrying hAPP 695 wild type.
Setting [7] is: SKNBE2 human neuroblastoma cells carrying hAPP 695 wild type.

With `COc1c(C#N)ccc2[nH]c(-c3nc4n(n3)CCOC4c3cccc(F)c3C(F)(F)F)cc12` (single isomer, unassigned) [Compound 133, 2-[8-[3-fluoro-2-(trifluoromethyl)phenyl]-5,6-dihydro-8H-[1,2,4]triazolo[5,1-c][1,4]oxazin-2-yl]-4-methoxy-1H-indole-5-carbonitrile], the response vs control in vivo at 30 mg/kg in assay [1] is 119%; in assay [3], 107%; in assay [4], 98%. The figures for the IC50 in assay [2] and in assay [5] (setting [6]) were 59 nM and greater than 10000 nM, respectively.

Take `COc1c(C#N)ccc2[nH]c(-c3nc4n(n3)CCCOC4c3ccc(F)cc3C)cc12` (centres unmarked) [Compound 53, 2-[9-(4-fluoro-2-methylphenyl)-6,7-dihydro-5H,9H-[1,2,4]triazolo[5,1-c][1,4]oxazepin-2-yl]-4-methoxy-1H-indole-5-carbonitrile]: the response vs control in vivo at 30 mg/kg in assay [1] was determined as 78%; in assay [3], 79%; in assay [4] it was 74%. The values for the IC50 in assay [2] and in assay [5] (setting [7]) were 35 nM and greater than 10000 nM, respectively.

In the case of `COc1c(C#N)ccc2[nH]c(-c3cn4c(n3)C(c3cccc(F)c3C(F)(F)F)OCC4)cc12` (single isomer, unassigned) [Compound 131, 2-[8-[3-fluoro-2-(trifluoromethyl)phenyl]-5,6-dihydro-8H-imidazo[2,1-c][1,4]oxazin-2-yl]-4-methoxy-1H-indole-5-carbonitrile], the response vs control in vivo at 30 mg/kg was found to be 144% in assay [1], 72% in assay [3] and 62% in assay [4]. The figures for the half-inhibitory concentration (IC50) in assay [2] and in assay [5] (setting [6]) were 27 nM and 6460 nM, respectively.

Turning to `COc1c(C#N)ccc2[nH]c(-c3cn4c(n3)C(c3ccccc3C(F)(F)F)OCC4)cc12` (single isomer, unassigned) [Compound 44, 2-[5,6-dihydro-8-[2-(trifluoromethyl)phenyl]-8H-imidazo[2,1-c][1,4]oxazin-2-yl]-4-methoxy-1H-indole-5-carbonitrile], the response vs control in vivo at 30 mg/kg in assay [1] amounted to 110%; in assay [3], 31%; in assay [4] it was 27%. Moreover, the half-maximal inhibitory concentration (IC50) in assay [2] is 21 nM; in assay [5] (setting [6]) it was greater than 10000 nM.

As to `COc1c(C#N)ccc2[nH]c(-c3cn4c(n3)C(c3cc(C(F)(F)F)ccc3F)OCC4)cc12` (centres unmarked) [Compound 164, 2-[8-[2-fluoro-5-(trifluoromethyl)phenyl]-5,6-dihydro-8H-imidazo[2,1-c][1,4]oxazin-2-yl]-4-methoxy-1H-indole-5-carbonitrile], the response vs control in vivo at 30 mg/kg in assay [1] amounted to 141%; in assay [3] it was 81%; in assay [4], 65%. The 50% inhibitory concentration (IC50) in assay [2] was 41 nM; in assay [5] (setting [7]), greater than 10000 nM.

Regarding `COc1c(C#N)ccc2[nH]c(-c3nc4n(n3)CCOC4c3ccccc3C(F)(F)F)cc12` (single isomer, unassigned) [Compound 56, 2-[5,6-dihydro-8-[2-(trifluoromethyl)phenyl]-8H-[1,2,4]triazolo[5,1-c][1,4]oxazin-2-yl]-4-methoxy-1H-indole-5-carbonitrile], the response vs control in vivo at 30 mg/kg turned out to be 139% in assay [1], 91% in assay [3] and 54% in assay [4]. The IC50 in assay [2] is 45 nM; in assay [5] (setting [6]) it was greater than 10000 nM.

`COc1c(C#N)ccc2[nH]c(-c3cn4c(n3)C(c3c(F)cccc3C(F)(F)F)OCC4)cc12` (centres unmarked) [Compound 153, 2-[8-[2-fluoro-6-(trifluoromethyl)phenyl]-5,6-dihydro-8H-imidazo[2,1-c][1,4]oxazin-2-yl]-4-methoxy-1H-indole-5-carbonitrile]: the values for the response vs control in vivo at 30 mg/kg in assay [1], in assay [3] and in assay [4] were 236%, 76% and 60%, respectively. For the same compound, the IC50 in assay [2] is 36 nM; in assay [5] (setting [7]), greater than 10000 nM.

For `COc1c(C#N)ccc2[nH]c(-c3cn4c(n3)C(c3c(F)cccc3Cl)OCC4)cc12` (single isomer, unassigned) [Compound 122, 2-[8-(2-chloro-6-fluorophenyl)-5,6-dihydro-8H-imidazo[2,1-c][1,4]oxazin-2-yl]-4-methoxy-1H-indole-5-carbonitrile], the response vs control in vivo at 30 mg/kg is 145% in assay [1], 90% in assay [3] and 74% in assay [4]. Besides, the IC50 in assay [2] was 39 nM; in assay [5] (setting [6]) it was greater than 10000 nM.

With `COc1c(C#N)ccc2[nH]c(-c3cn4c(n3)C(c3cccc(F)c3C)OCC4)cc12` (centres unmarked) [Compound 41, 2-[8-(3-fluoro-2-methylphenyl)-5,6-dihydro-8H-imidazo[2,1-c][1,4]oxazin-2-yl]-4-methoxy-1H-indole-5-carbonitrile], the response vs control in vivo at 30 mg/kg in assay [1] is 140%; in assay [3], 35%; in assay [4], 34%. Besides, the half-inhibitory concentration (IC50) in assay [2] is 20 nM; in assay [5] (setting [7]), greater than 10000 nM.

Regarding `COc1c(C#N)ccc2[nH]c(-c3nc4n(n3)CCOC4c3cccc(C)c3F)cc12` (single isomer, unassigned) [Compound 148, 2-[8-(2-fluoro-3-methylphenyl)-5,6-dihydro-8H-[1,2,4]triazolo[5,1-c][1,4]oxazin-2-yl]-4-methoxy-1H-indole-5-carbonitrile], the response vs control in vivo at 30 mg/kg was found to be 132% in assay [1], 118% in assay [3] and 110% in assay [4]. Also, the IC50 is 74 nM in assay [2] and greater than 10000 nM in assay [5] (setting [6]).

As a reminder, the IC50 is the midpoint of a concentration-inhibition curve. Low values mean greater potency, high ones weaker potency.
